Test results published in PubChem BioAssay AID248 (DTP/NCI, 2004).
Several values for one entry are separate records, joined by “and”; a condition that tells them apart may be missing. Equal values may be shown once. Inconclusive results and toxic doses are left out.

System: L1210 leukemia ip in BDF1 mice, survival T/C
Assay: NCI In Vivo Anticancer Drug Screen. Data for tumor model L1210 Leukemia (intraperitoneal) in B6D2F1 (BDF1) mice
Conditions: endpoint: mean survival time, higher = longer survival
In short: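 Tumor cells were implanted, animals were treated, and survival was followed. The result divides the treated measurement by the vehicle-control measurement.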

[1] = dose: 100.0 mg/kg/injection, schedule: Q01DX001 (ip), vehicle: saline
[2] = dose: 200.0 mg/kg/injection, schedule: Q01DX001 (ip), vehicle: saline
[3] = dose: 400.0 mg/kg/injection, schedule: Q01DX001 (ip), vehicle: saline

## COC(C(=O)C(O)C(C)O)C1CC2C=C3C=C(OC4CC(OC5CC(O)C(OC)C(C)O5)C(OC(C)=O)C(C)O4)C(C)C(=O)C3=C(O)C2=C(O)C1OC1CC(OC2CC(OC3CC(C)(O)C(OC(=O)C(C)C)C(C)O3)C(O)C(C)O2)C(O)C(C)O1 (stereo not given)
dose: 0.25 mg/kg/injection, schedule: Q01DX001 (ip), vehicle: other
  T/C: 121 % of control
dose: 0.5 mg/kg/injection, schedule: Q01DX001 (ip), vehicle: other
  T/C: 113 % of control
dose: 1.0 micrograms/kg/injection, schedule: Q01DX009 (ip), vehicle: other
  T/C: 111 % of control
dose: 1.0 micrograms/kg/injection, schedule: Q01DX009 (ip), vehicle: saline
  T/C: 111 % of control
dose: 2.0 micrograms/kg/injection, schedule: Q01DX009 (ip), vehicle: other
  T/C: 105 % of control
dose: 2.0 micrograms/kg/injection, schedule: Q01DX009 (ip), vehicle: saline
  T/C: 117 % of control
dose: 4.0 micrograms/kg/injection, schedule: Q01DX009 (ip), vehicle: other
  T/C: 109 % of control
dose: 4.0 micrograms/kg/injection, schedule: Q01DX009 (ip), vehicle: saline
  T/C: 117 % of control
dose: 5.0 micrograms/kg/injection, schedule: Q01DX001 (ip), vehicle: saline
  T/C: 114 % of control
dose: 8.0 micrograms/kg/injection, schedule: Q01DX009 (ip), vehicle: other
  T/C: 121 % of control
dose: 10.0 micrograms/kg/injection, schedule: Q01DX001 (ip), vehicle: saline
  T/C: 123 % of control
dose: 16.0 micrograms/kg/injection, schedule: Q01DX009 (ip), vehicle: other
  T/C: 118 % of control
dose: 16.0 micrograms/kg/injection, schedule: Q01DX009 (ip), vehicle: saline
  T/C: 117 % of control
dose: 20.0 micrograms/kg/injection, schedule: Q01DX001 (ip), vehicle: saline
  T/C: 114 % of control
dose: 32.0 micrograms/kg/injection, schedule: Q01DX009 (ip), vehicle: saline
  T/C: 112 % of control
dose: 37.0 micrograms/kg/injection, schedule: Q01DX009 (ip), vehicle: other
  T/C: 110 % of control
dose: 40.0 micrograms/kg/injection, schedule: Q01DX001 (ip), vehicle: saline
  T/C: 120 % of control
dose: 62.5 micrograms/kg/injection, schedule: Q04DX003 (ip), vehicle: saline
  T/C: 107 % of control
dose: 80.0 micrograms/kg/injection, schedule: Q01DX001 (ip), vehicle: saline
  T/C: 103 % of control
dose: 125.0 micrograms/kg/injection, schedule: Q01DX001 (ip), vehicle: saline
  T/C: 151 % of control and 331 % of control
dose: 125.0 micrograms/kg/injection, schedule: Q04DX003 (ip), vehicle: saline
  T/C: 104 % of control
dose: 125.0 micrograms/kg/injection, schedule: Q08DX002 (ip), vehicle: saline
  T/C: 163 % of control
dose: 250.0 micrograms/kg/injection, schedule: Q01DX001 (ip), vehicle: saline
  T/C: 116 % of control and 198 % of control and 283 % of control

## COc1ccc(OC(=O)Nc2ccc(Cl)cc2Cl)cc1
dose: 50.0 mg/kg/injection, schedule: Q01DX009 (ip), vehicle: saline with Tween-80
  T/C: 102 % of control
dose: 100.0 mg/kg/injection, schedule: Q01DX009 (ip), vehicle: saline with Tween-80
  T/C: 91 % of control
dose: 200.0 mg/kg/injection, schedule: Q01DX009 (ip), vehicle: saline with Tween-80
  T/C: 98 % of control

## CN(C)CCCN1c2ccc(O)cc2Sc2ccc(Cl)cc21
dose: 3.1 mg/kg/injection, schedule: Q01DX009 (ip), vehicle: other
  T/C: 90 % of control
dose: 6.2 mg/kg/injection, schedule: Q01DX009 (ip), vehicle: other
  T/C: 94 % of control
dose: 12.5 mg/kg/injection, schedule: Q01DX009 (ip), vehicle: other
  T/C: 94 % of control
dose: 25.0 mg/kg/injection, schedule: Q01DX009 (ip), vehicle: other
  T/C: 97 % of control
dose: 50.0 mg/kg/injection, schedule: Q04DX003 (ip), vehicle: saline with Tween-80
  T/C: 103 % of control
dose: 100.0 mg/kg/injection, schedule: Q04DX003 (ip), vehicle: saline with Tween-80
  T/C: 103 % of control

## O=C(Nc1cccc(Cl)c1)Nc1cccc(C(F)(F)F)c1
dose: 15.0 mg/kg/injection, schedule: Q01DX015 (ip), vehicle: carboxymethylcellulose (CMC)
  T/C: 103 % of control
dose: 30.0 mg/kg/injection, schedule: Q01DX015 (ip), vehicle: carboxymethylcellulose (CMC)
  T/C: 103 % of control
dose: 60.0 mg/kg/injection, schedule: Q01DX015 (ip), vehicle: carboxymethylcellulose (CMC)
  T/C: 100 % of control
dose: 120.0 mg/kg/injection, schedule: Q01DX015 (ip), vehicle: carboxymethylcellulose (CMC)
  T/C: 103 % of control

## CC(NC(=O)OCc1ccccc1)C(=O)Oc1cc(Cl)c(Cl)cc1Cl (stereo not given)
[1]
  T/C: 92 % of control
dose: 100.0 mg/kg/injection, schedule: Q01DX009 (ip), vehicle: saline
  T/C: 95 % of control
dose: 100.0 mg/kg/injection, schedule: Q04DX003 (ip), vehicle: saline
  T/C: 91 % of control
[2]
  T/C: 97 % of control
dose: 200.0 mg/kg/injection, schedule: Q01DX009 (ip), vehicle: saline
  T/C: 93 % of control
dose: 200.0 mg/kg/injection, schedule: Q04DX003 (ip), vehicle: Klucel (hydroxypropylcellulose) (HPC)
  T/C: 87 % of control
dose: 200.0 mg/kg/injection, schedule: Q04DX003 (ip), vehicle: saline
  T/C: 91 % of control
[3]
  T/C: 92 % of control
dose: 400.0 mg/kg/injection, schedule: Q01DX009 (ip), vehicle: saline
  T/C: 92 % of control

## CCC1CN1P1(=O)OCC(C)(C(=O)OC)CO1 (stereo not given)
[1]
  T/C: 101 % of control
[2]
  T/C: 108 % of control
[3]
  T/C: 101 % of control

## Cc1nc2[nH]cnc(=S)c2[nH]1
dose: 100.0 mg/kg/injection, schedule: Q01DX001 (ip), vehicle: other
  T/C: 107 % of control
dose: 200.0 mg/kg/injection, schedule: Q01DX001 (ip), vehicle: other
  T/C: 103 % of control
